From patent US20260262643A1, “HERBICIDAL BENZOXAZINES” (FMC CORPORATION, priority 2022, published 2026)

Columns and labels:
[1] = tested on: corn; assay: Test C preemergence; assay type: in vivo, Zea mays; details: for Corn plant response rating: 500 g ai/ha, preemergence, 0 to 100 scale (0 no effect, 100 complete control); for Plant response rating, Corn: Preemergence, 125 g ai/ha, 0 to 100 scale, 0 no effect, 100 complete control
Procedure, shortened: (§1)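 Test material, in non-phytotoxic solvent with surfactant, was sprayed on the soil directly after seeding (preemergence) or on young plants of 2–10 cm with one to two leaves (postemergence). Greenhouse, 10 days; 0–100 visual control scale.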

[2] = tested on: ragweed; assay: Test C postemergence; assay type: in vivo, Ambrosia artemisiifolia; details: 10 days, 0 to 100 scale (0 no effect, 100 complete control)
Procedure, shortened: as §1

[3] = tested on: ducksalad; assay: Test D flooded paddy test; assay type: in vivo, Heteranthera limosa; details: 250 g ai/ha, applied to paddy water, visual rating after 13 to 14 days, scale 0 to 100 (0 no effect, 100 complete control)
Procedure, shortened: (§2)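 Plants grown to the 2-leaf stage; pots flooded to 3 cm above soil at treatment and held at that depth throughout. Test compounds applied directly to the paddy water. After 13 to 14 days in a greenhouse, response was rated visually versus controls on a 0 (no effect) to 100 (complete control) scale.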

[4] = tested on: barnyardgrass; assay: Test D flooded paddy test; assay type: in vivo, Echinochloa crus-galli; details: 250 g ai/ha, applied to paddy water, visual rating after 13 to 14 days, scale 0 to 100 (0 no effect, 100 complete control)
Procedure, shortened: as §2

[5] = tested on: sedge, umbrella; assay: Test D flooded paddy test; assay type: in vivo, Cyperus difformis; details: 250 g ai/ha, applied to paddy water, visual rating after 13 to 14 days, scale 0 to 100 (0 no effect, 100 complete control)
Procedure, shortened: as §2

[6] = tested on: soybean; assay: Test C preemergence; assay type: in vivo, Glycine max; details: for Soybean plant response rating: 500 g ai/ha, preemergence, 0 to 100 scale (0 no effect, 100 complete control); for Plant response rating, Soybean: Preemergence, 125 g ai/ha, 0 to 100 scale, 0 no effect, 100 complete control
Procedure, shortened: as §1

[7] = tested on: blackgrass; assay: Test C preemergence; assay type: in vivo, Alopecurus myosuroides; details: for Blackgrass plant response rating: 500 g ai/ha, preemergence, 0 to 100 scale (0 no effect, 100 complete control); for Plant response rating, Blackgrass: Preemergence, 125 g ai/ha, 0 to 100 scale, 0 no effect, 100 complete control
Procedure, shortened: as §1

[8] = tested on: barnyardgrass; assay: Test C preemergence; assay type: in vivo, Echinochloa crusgalli; details: for Barnyardgrass plant response rating: 500 g ai/ha, preemergence, 0 to 100 scale (0 no effect, 100 complete control); for Plant response rating, Barnyardgrass: Preemergence, 125 g ai/ha, 0 to 100 scale, 0 no effect, 100 complete control
Procedure, shortened: as §1

[9] = tested on: wheat; assay: Test C preemergence; assay type: in vivo, Triticum aestivum; details: for Wheat plant response rating: 500 g ai/ha, preemergence, 0 to 100 scale (0 no effect, 100 complete control); for Plant response rating, Wheat: Preemergence, 125 g ai/ha, 0 to 100 scale, 0 no effect, 100 complete control
Procedure, shortened: as §1

[10] = tested on: barnyardgrass; assay: Test C postemergence; assay type: in vivo, Echinochloa crusgalli; details: 10 days, 0 to 100 scale (0 no effect, 100 complete control)
Procedure, shortened: as §1

[11] = tested on: foxtail, giant; assay: Test C postemergence; assay type: in vivo, Setaria faberi; details: 10 days, 0 to 100 scale (0 no effect, 100 complete control)
Procedure, shortened: as §1

[12] = tested on: wheat; assay: Test C postemergence; assay type: in vivo, Triticum aestivum; details: 10 days, 0 to 100 scale (0 no effect, 100 complete control)
Procedure, shortened: as §1

[13] = tested on: pigweed, palmer; assay: Test C postemergence; assay type: in vivo, Amaranthus palmeri; details: 10 days, 0 to 100 scale (0 no effect, 100 complete control)
Procedure, shortened: as §1

[14] = tested on: ragweed; assay: Test C preemergence; assay type: in vivo, Ambrosia artemisiifolia; details: for Plant response rating, Ragweed: Preemergence, 125 g ai/ha, 0 to 100 scale, 0 no effect, 100 complete control
Procedure, shortened: as §1

[15] = tested on: oat, wild; assay: Test C postemergence; assay type: in vivo, Avena fatua; details: 10 days, 0 to 100 scale (0 no effect, 100 complete control)
Procedure, shortened: as §1

[16] = tested on: ryegrass, Italian; assay: Test C postemergence; assay type: in vivo, Lolium multiflorum; details: 10 days, 0 to 100 scale (0 no effect, 100 complete control)
Procedure, shortened: as §1

[17] = tested on: galium; assay: Test C postemergence; assay type: in vivo, Galium aparine; details: 10 days, 0 to 100 scale (0 no effect, 100 complete control)
Procedure, shortened: as §1

[18] = tested on: rice; assay: Test D flooded paddy test; assay type: in vivo, Oryza sativa; details: 250 g ai/ha, applied to paddy water, visual rating after 13 to 14 days, scale 0 to 100 (0 no effect, 100 complete control)
Procedure, shortened: as §2

[19] = tested on: kochia; assay: Test C preemergence; assay type: in vivo, Bassia scoparia; details: for Kochia plant response rating: 500 g ai/ha, preemergence, 0 to 100 scale (0 no effect, 100 complete control); for Plant response rating, Kochia: Preemergence, 125 g ai/ha, 0 to 100 scale, 0 no effect, 100 complete control
Procedure, shortened: as §1

[20] = tested on: horseweed; assay: Test C postemergence; assay type: in vivo, Erigeron canadensis; details: 10 days, 0 to 100 scale (0 no effect, 100 complete control)
Procedure, shortened: as §1

[21] = tested on: pigweed, palmer; assay: Test C preemergence; assay type: in vivo, Amaranthus palmeri; details: for Pigweed, Palmer plant response rating: 500 g ai/ha, preemergence, 0 to 100 scale (0 no effect, 100 complete control); for Plant response rating, Pigweed, Palmer: Preemergence, 125 g ai/ha, 0 to 100 scale, 0 no effect, 100 complete control
Procedure, shortened: as §1

[22] = tested on: oat, wild; assay: Test C preemergence; assay type: in vivo, Avena fatua; details: for Oat, Wild plant response rating: 500 g ai/ha, preemergence, 0 to 100 scale (0 no effect, 100 complete control); for Plant response rating, Oat, Wild: Preemergence, 125 g ai/ha, 0 to 100 scale, 0 no effect, 100 complete control
Procedure, shortened: as §1

[23] = tested on: corn; assay: Test C postemergence; assay type: in vivo, Zea mays; details: 10 days, 0 to 100 scale (0 no effect, 100 complete control)
Procedure, shortened: as §1

[24] = tested on: kochia; assay: Test C postemergence; assay type: in vivo, Bassia scoparia; details: 10 days, 0 to 100 scale (0 no effect, 100 complete control)
Procedure, shortened: as §1

[25] = tested on: foxtail, giant; assay: Test C preemergence; assay type: in vivo, Setaria faberi; details: for Foxtail, Giant plant response rating: 500 g ai/ha, preemergence, 0 to 100 scale (0 no effect, 100 complete control); for Plant response rating, Foxtail, Giant: Preemergence, 125 g ai/ha, 0 to 100 scale, 0 no effect, 100 complete control
Procedure, shortened: as §1

[26] = tested on: soybean; assay: Test C postemergence; assay type: in vivo, Glycine max; details: 10 days, 0 to 100 scale (0 no effect, 100 complete control)
Procedure, shortened: as §1

[27] = tested on: ryegrass, Italian; assay: Test C preemergence; assay type: in vivo, Lolium multiflorum; details: for Ryegrass, Italian plant response rating: 500 g ai/ha, preemergence, 0 to 100 scale (0 no effect, 100 complete control); for Plant response rating, Ryegrass, Italian: Preemergence, 125 g ai/ha, 0 to 100 scale, 0 no effect, 100 complete control
Procedure, shortened: as §1

[28] = tested on: blackgrass; assay: Test C postemergence; assay type: in vivo, Alopecurus myosuroides; details: 10 days, 0 to 100 scale (0 no effect, 100 complete control)
Procedure, shortened: as §1

CCc1ncn(-c2cccc(C(=O)N3CC(C(F)(F)F)Oc4c(C)cccc43)c2)n1 (stereo not shown) [Compound 344]
20: Plant response rating, Corn [1] | Plant response rating, Pigweed, Palmer ([13]; Postemergence, 125 g ai/ha)
25: Plant response rating, Barnyardgrass (Flood) [4]
0: Plant response rating, Soybean [6] | Plant response rating, Ragweed [14] | Plant response rating, Rice (Flood) [18] | Plant response rating, Oat, Wild [22]
60: Plant response rating, Oat, Wild ([15]; Postemergence, 125 g ai/ha) | Plant response rating, Kochia [19]
70: Plant response rating, Ragweed ([2]; 500 g ai/ha, postemergence) | Plant response rating, Ragweed ([2]; Postemergence, 125 g ai/ha) | Plant response rating, Sedge, Umbrella (Flood) [5] | Plant response rating, Barnyardgrass ([10]; 500 g ai/ha, postemergence) | Plant response rating, Foxtail, Giant ([11]; Postemergence, 125 g ai/ha) | Plant response rating, Kochia ([24]; Postemergence, 125 g ai/ha)
100: Blackgrass plant response rating [7] | Barnyardgrass plant response rating [8] | Plant response rating, Ryegrass, Italian ([16]; 500 g ai/ha, postemergence) | Plant response rating, Galium ([17]; 500 g ai/ha, postemergence) | Kochia plant response rating [19] | Pigweed, Palmer plant response rating [21] | Foxtail, Giant plant response rating [25] | Plant response rating, Foxtail, Giant [25] | Plant response rating, Soybean ([26]; 500 g ai/ha, postemergence) | Ryegrass, Italian plant response rating [27]
80: Plant response rating, Barnyardgrass [8] | Wheat plant response rating [9] | Plant response rating, Wheat ([12]; 500 g ai/ha, postemergence) | Plant response rating, Ryegrass, Italian ([16]; Postemergence, 125 g ai/ha) | Plant response rating, Kochia ([24]; 500 g ai/ha, postemergence) | Plant response rating, Soybean ([26]; Postemergence, 125 g ai/ha) | Plant response rating, Blackgrass ([28]; Postemergence, 125 g ai/ha)
90: Plant response rating, Blackgrass [7] | Plant response rating, Foxtail, Giant ([11]; 500 g ai/ha, postemergence) | Plant response rating, Oat, Wild ([15]; 500 g ai/ha, postemergence) | Plant response rating, Galium ([17]; Postemergence, 125 g ai/ha) | Plant response rating, Pigweed, Palmer [21] | Oat, Wild plant response rating [22] | Plant response rating, Corn ([23]; 500 g ai/ha, postemergence) | Plant response rating, Ryegrass, Italian [27] | Plant response rating, Blackgrass ([28]; 500 g ai/ha, postemergence)
40: Plant response rating, Wheat [9] | Plant response rating, Barnyardgrass ([10]; Postemergence, 125 g ai/ha) | Plant response rating, Pigweed, Palmer ([13]; 500 g ai/ha, postemergence)
30: Corn plant response rating [1] | Plant response rating, Ducksalad (Flood) [3] | Plant response rating, Wheat ([12]; Postemergence, 125 g ai/ha) | Plant response rating, Horseweed ([20]; 500 g ai/ha, postemergence) | Plant response rating, Horseweed ([20]; Postemergence, 125 g ai/ha) | Plant response rating, Corn ([23]; Postemergence, 125 g ai/ha)
50: Soybean plant response rating [6] | Ragweed plant response rating ([14]; 500 g ai/ha, preemergence, 0 to 100 scale (0 no effect, 100 complete control))

CC(C)(C)c1ncn(-c2cc(C(=O)N3CC(C(F)(F)F)Oc4c(Cl)cccc43)ccn2)n1 (stereo not shown) [Compound 322]
0: Plant response rating, Ducksalad (Flood) [3] | Plant response rating, Barnyardgrass (Flood) [4] | Plant response rating, Sedge, Umbrella (Flood) [5] | Plant response rating, Soybean [6] | Plant response rating, Wheat [9] | Plant response rating, Ragweed [14] | Plant response rating, Oat, Wild ([15]; Postemergence, 125 g ai/ha) | Plant response rating, Rice (Flood) [18] | Plant response rating, Horseweed ([20]; 500 g ai/ha, postemergence) | Plant response rating, Horseweed ([20]; Postemergence, 125 g ai/ha) | Plant response rating, Oat, Wild [22]
20: Wheat plant response rating [9] | Plant response rating, Wheat ([12]; 500 g ai/ha, postemergence) | Plant response rating, Wheat ([12]; Postemergence, 125 g ai/ha) | Plant response rating, Ryegrass, Italian ([16]; Postemergence, 125 g ai/ha) | Plant response rating, Kochia [19]
80: Plant response rating, Kochia ([24]; 500 g ai/ha, postemergence) | Ryegrass, Italian plant response rating [27]
100: Foxtail, Giant plant response rating [25] | Plant response rating, Soybean ([26]; 500 g ai/ha, postemergence)
10: Plant response rating, Corn ([23]; 500 g ai/ha, postemergence) | Plant response rating, Corn ([23]; Postemergence, 125 g ai/ha) | Plant response rating, Blackgrass ([28]; Postemergence, 125 g ai/ha)
90: Barnyardgrass plant response rating [8] | Plant response rating, Foxtail, Giant ([11]; 500 g ai/ha, postemergence) | Plant response rating, Pigweed, Palmer ([13]; 500 g ai/ha, postemergence) | Pigweed, Palmer plant response rating [21] | Plant response rating, Foxtail, Giant [25]
40: Plant response rating, Ragweed ([2]; Postemergence, 125 g ai/ha) | Blackgrass plant response rating [7] | Plant response rating, Blackgrass [7] | Plant response rating, Barnyardgrass [8] | Plant response rating, Barnyardgrass ([10]; Postemergence, 125 g ai/ha) | Plant response rating, Ryegrass, Italian ([16]; 500 g ai/ha, postemergence) | Kochia plant response rating [19] | Plant response rating, Pigweed, Palmer [21] | Plant response rating, Blackgrass ([28]; 500 g ai/ha, postemergence)
70: Soybean plant response rating [6] | Plant response rating, Galium ([17]; 500 g ai/ha, postemergence) | Plant response rating, Galium ([17]; Postemergence, 125 g ai/ha)
60: Plant response rating, Kochia ([24]; Postemergence, 125 g ai/ha) | Plant response rating, Soybean ([26]; Postemergence, 125 g ai/ha) | Plant response rating, Ryegrass, Italian [27]
30: Corn plant response rating [1] | Plant response rating, Corn [1] | Plant response rating, Oat, Wild ([15]; 500 g ai/ha, postemergence) | Oat, Wild plant response rating [22]
50: Plant response rating, Ragweed ([2]; 500 g ai/ha, postemergence) | Plant response rating, Barnyardgrass ([10]; 500 g ai/ha, postemergence) | Plant response rating, Foxtail, Giant ([11]; Postemergence, 125 g ai/ha) | Plant response rating, Pigweed, Palmer ([13]; Postemergence, 125 g ai/ha)
